Test: Moisture sensitivity test: hydrolytic degradation of isothiocyanate in aqueous phosphate buffer
Assay type: physicochemical
Details: white mustard essential oil (about 25% 4-HBITC) suspended in aqueous phosphate buffer pH about 3.6, about 20-23° C., about 24 hours
Protocol: Supercritical fluid chromatography can be used to determine the amount of 4-hydroxybenzyl isothiocyanate in a preservative composition. First an accurately weighed amount of the preservative composition is either dissolved in a compatible solvent such as ethyl acetate or ethyl acetate and ethanol mixtures or solid preservative compositions are extracted repeatedly with ethyl acetate.
These solutions are analyzed by supercritical fluid chromatography using the method described by Buskov, S. et al., “Supercritical fluid chromatography as a method of analysis for the determination of 4-hydroxybenzylglucosinolate degradation products,” Journal of Biochemical and Biophysical Methods, Vol. 43, pp 157-174 (2000) with the following modifications. A Berger SFC 3D system equipped with a photodiode array detector (Berger Instruments Inc., Newark, Del.) is used for the analysis. […] The eluate is detected at 226 and 252 nm. […]
Moisture sensitive isothiocyanate compounds are identified by suspending the isothiocyanate containing material in an aqueous phosphate buffer (pH of about 3.6) at room temperature. […] The extraction procedure is repeated after 24 hours and the level of residual isothiocyanate compound is measured by supercritical fluid chromatography. […]

## Oc1ccc(CN=C=S)cc1 [4-hydroxybenzyl isothiocyanate]
  percent reduction in level of 4-hydroxybenzyl isothiocyanate after 24 hours: about 72%

— patent publication US20120052175A1 (priority 2010, published 2012)
